{"source": "patent US9163032B2", "about": "“Esters of DCPLA and methods of treatment using the same” (Blanchette Rockefeller Neurosciences Institute, priority 2011, dated 2015)", "key": {"PKC-ε": {"molecular_target": "T1, PKC-ε (Homo sapiens, UniProt Q02156)", "T1 sequence (Q02156 1-737)": "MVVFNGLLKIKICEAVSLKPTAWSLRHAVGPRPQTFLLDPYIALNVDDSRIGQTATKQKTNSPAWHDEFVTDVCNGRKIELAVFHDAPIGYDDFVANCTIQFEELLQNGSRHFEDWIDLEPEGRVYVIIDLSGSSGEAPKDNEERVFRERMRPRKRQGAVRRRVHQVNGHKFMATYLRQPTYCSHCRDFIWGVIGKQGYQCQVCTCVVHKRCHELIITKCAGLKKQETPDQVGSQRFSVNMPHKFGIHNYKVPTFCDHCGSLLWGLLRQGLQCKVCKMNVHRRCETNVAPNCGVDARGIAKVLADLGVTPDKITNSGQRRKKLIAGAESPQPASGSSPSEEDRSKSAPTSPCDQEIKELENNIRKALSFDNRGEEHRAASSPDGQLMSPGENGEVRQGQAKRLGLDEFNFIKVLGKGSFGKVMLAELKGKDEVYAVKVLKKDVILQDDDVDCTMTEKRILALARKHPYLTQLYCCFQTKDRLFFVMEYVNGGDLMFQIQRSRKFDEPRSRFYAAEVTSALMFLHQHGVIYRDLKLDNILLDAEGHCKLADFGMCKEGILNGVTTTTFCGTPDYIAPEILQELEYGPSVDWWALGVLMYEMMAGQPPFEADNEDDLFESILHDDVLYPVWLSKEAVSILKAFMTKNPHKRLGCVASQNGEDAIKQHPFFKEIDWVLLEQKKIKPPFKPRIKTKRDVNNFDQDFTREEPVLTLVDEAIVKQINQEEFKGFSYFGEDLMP", "assay": "PKC activation assay with purified PKC-ε isozyme (32P-phosphoprotein formation)", "type": "biochemical", "settings": "for Emax: % of control of PKCε at maximum; for Specificity ε/α: Activation of PKC-ε ÷ activation or inhibition of PKCα at 3xEC50; for EC50: lowest concentration that activates by 50% of maximum activation", "protocol": "For measurement of PKC activation by DCPLA-ME, activation of recombinant PKC-α, PKC-ε, and PKC-δ was evaluated. DCPLA-ME induced activation was measured in the absence of diacylglycerol (DAG) and phosphatidylserine (PS) as described earlier. See Nelson, T. J. et al., J. Biol. Chem., 2009, 284: 34514-34521, and Kanno, T. et al., J. Cell Physiol., 2009, 221: 183-188. Individual enzymes were incubated for 15 min at 37° C. in the presence of 10 μM histones, 4.89 mM CaCl2, 10 mM MgCl2, 20 mM HEPES (pH 7.4), 0.8 mM EDTA, 4 mM EGTA, 4% glycerol, 8 μg/ml aprotinin, 8 μg/ml leupeptin, 2 mM benzamidine, and 0.5 μCi of [γ-^32P]ATP. Purified PKC-α, PKC-ε and PKC-δ were preincubated with DCPLA-ME for 5 min at room temperature. [^32P]-Phosphoprotein formation was measured by adsorption onto phosphocellulose.\nTo measure PKC, 10 μl of cell homogenate or purified PKC isozyme was incubated for 15 min at 37° C. in the presence of 10 μM histones, 4.89 mM CaCl2, 1.2 μg/μl phosphatidyl-L-serine, 0.18 μg/μl 1,2-dioctanoyl-sn-glycerol, 10 mM MgCl2, 20 mM HEPES (pH 7.4), 0.8 mM EDTA, 4 mM EGTA, 4% glycerol, 8 μg/ml aprotinin, 8 μg/ml leupeptin, and 2 mM benzamidine. [γ32P]ATP (0.5 μCi) was added and 32P-phosphoprotein formation was measured by adsorption onto phosphocellulose as described previously. See Nelson et al., J. Neurochemistry, 1995, 65: 2350-2357.\nPKC activity of each compound was measured in the absence of diacylglycerol and phosphatidyl-L-serine and PKC-δ and PKC-ε were measured in the absence of added EGTA and CaCl2, as described by Kanno et al., J. Lipid Res., 2006, 47: 1146-1156. Low concentrations of Ca^2+ are needed because high Ca^2+ interacts with the PKC phosphatidylserine binding site and prevents activation. […] To determine their PKC isozyme specificity, the compounds were pre-incubated with purified isoforms of PKC for five minutes and the PKC activity was measured radiometrically.\nThe activation and PKC isozyme specificity of DCPLA-ethyl ester was measured following the procedures in Example 1(B) and (C), except that 9 ng of the purified isozyme was used and it was pre-incubated for 5 minutes at room temperature (FIG. 3). PKC-ε activation by DCPLA-tert-butyl ester and DCPLA-retinyl ester was measured in the same manner as DCPLA-ethyl ester (FIG. 3).\nThe EC50 values, PKC specificity, and activation for a select number of DCPLA esters was determined (see Table 1). EC50 values were determined by measuring the lowest concentration that activates by 50% of maximum activation. […] The specificity and activation of PKC by the various esters of DCPLA were determined from the measurements of activation of PKC isozymes."}, "[1]": {"tested_on": "Phosphatidylserine (C2) Binding Site", "assay": "3H-DCPLA-ME binding to rat brain slices with C1 and C2 competitors (film-autoradiography)", "settings": "rat brain slices", "protocol": "To determine the binding site of DCPLA-ME, ^3H-DCPLA-ME was incubated with rat brain slices in the absence and presence of known C1 and C2 competitors. More specifically, rat brain sections were fixed with formaldehyde, sliced, and incubated with (1)^3H-DCPLA-ME alone; (2)^3H-DCPLA-ME with DCPLA; (3)^3H-DCPLA-ME with Phorbol ester; or (4)^3H-DCPLA-ME and Bryostatin 1. After incubation, the slices were washed with a buffer made of 130 mM NaCl, 5 mM MgCl, 5 mM KCl, 1 mM EGTA, and 0.1% bovine serum albumin in 10 mM HEPES-NaOH, pH 7.4, dried, and analyzed with film-autoradiography."}, "[2]": {"tested_on": "rat primary hippocampal neurons", "assay": "Neurotoxic effect of Aβ1-42 oligomers, MTT viability assay", "type": "cell-based", "settings": "20 hr", "protocol": "Amylospheroids (ASPDs) and Aβ monomers were prepared following Hoshi, M., et al. (2003) Proc Natl Acad Sci USA 100, 6370-6375, and Noguchi, A., et al. (2009) J Biol Chem 284, 32895-32905. Briefly, Aβ1-42 was dissolved in 1,1,1,3,3,3-hexafluoro-2-propanol and incubated overnight at 4° C. and then 3 hr at 37° C. The dissolved Aβ1-42 was then lyophilized in 1.5 ml polypropylene centrifuge tubes at 40 nmol/tube concentration. For preparing the ASPDs, the lyophilized Aβ was dissolved in phosphate buffered saline (PBS) without Ca^2+ or Mg^2+ at less than 50 μM concentration and rotated for 14 hr at 4° C. After incubation, the Aβ solution was purified using a 100 kDa molecular mass cutoff filter (Amicon Ultra, Millipore) and the high-molecular weight fraction was saved to obtain the most toxic ASPDs. Aβ derived diffusible ligands (ADDLs) were produced as previously described. See Lambert, M. P et al., Proc. Natl. Acad. Sci. USA, 1998, 95: 6448-6453. Briefly, Aβ1-42 was solubilized at 5 mM in dimethyl sulfoxide, diluted to 100 μM in F12k medium and was incubated at 4° C. for 24 hr. The solution was centrifuged at 14000×g for 10 min at 4° C. and the supernatant was used as the ADDLs.\nViability of cells was measured by MTT assay. MTT (i.e., 3-(4,5-dimethylthiazol-2-yl)-2,5-diphenyltetrazolium bromide) is a tetrazolium salt that is cleaved to formazan by the succinate dehydrogenase, which is only active in viable cells. After solubilization of the formazan, the amount of dye can be quantified with a microplate reader at 570 nm along with a reference of 630 nm. For the MTT assay, 5×10^4 primary rat hippocampal neurons from 18-day-old embryonic Sprague-Dawley rat brains or SH-SY5Y cells were plated on each well of 24-well plates coated with poly-D-lysine. After treatment, the cells were washed with 1× PBS and were incubated with 200 μl of 1 mg/ml MTT solution (Sigma, USA) at 37° C. for 2 hr. Then the MTT-solution was removed and the cells were lysed with 200 μl isopropanol containing 0.04 M HCl and […] for 10 min. Finally, the reading was taken at 570 nm and 630 nm. All the samples were done in triplicate and the data were represented as the percentage of control.\nTo assess the neurotoxic effect of different sized oligomers, rat primary hippocampal neurons were treated with variable concentrations of these Aβ1-42 species for 20 hr. Viability of the treated cells was compared to untreated cells using the MTT assay described above."}}, "data": [{"compound": "CCCCCC1CC1CC1CC1CCCCCCCC(=O)O", "note": "(stereo not shown) [DCPLA, 8-[2-(2-pentylcyclopropylmethyl)-cyclopropyl]-octanoic acid]", "values": [{"measurement": "Emax", "setting": "PKC-ε", "result": 300, "unit": "%"}, {"measurement": "Specificity ε/α", "setting": "PKC-ε", "result": 7.4}, {"measurement": "EC50", "setting": "PKC-ε", "result": 1000, "unit": "nM"}, {"measurement": "3H-DCPLA-ME binding, 30 nM competitor", "setting": "[1]", "result": 86, "unit": "%"}, {"measurement": "3H-DCPLA-ME binding, 1 μM competitor", "setting": "[1]", "result": 35, "unit": "%"}]}, {"compound": "CCCCCCCCC1CC1CCCCCCCCOC(=O)CCCCCCCC1CC1CC1CC1CCCCC", "note": "(stereo not shown) [DCPLA-cyclopropanated oleyl ester]", "values": [{"measurement": "Emax", "setting": "PKC-ε", "result": 140, "unit": "%"}, {"measurement": "Specificity ε/α", "setting": "PKC-ε", "result": 8.1}, {"measurement": "concentration of maximal activation", "setting": "PKC-ε; FIG. 2, FIG. 4", "result": 10, "unit": "nM"}, {"measurement": "PKC isozyme specificity", "setting": "PKC-ε; PKC-ε vs PKC-α and PKC-δ", "result": "relatively specific for PKC-ε"}, {"measurement": "EC50", "setting": "PKC-ε", "result": 3, "unit": "nM"}, {"measurement": "PKC-ε activation at its peak", "setting": "PKC-ε; maximum, FIG. 1, 2, 4", "result": "140 % of control"}]}, {"compound": "CCCCCC1CC1CC1CC1CCCCCCCC(=O)OCC", "note": "(stereo not shown) [DCPLA-ethyl ester]", "values": [{"measurement": "Emax", "setting": "PKC-ε", "result": 126, "unit": "%"}, {"measurement": "Specificity ε/α", "setting": "PKC-ε", "result": 4.2}, {"measurement": "EC50", "setting": "PKC-ε", "result": 3, "unit": "nM"}]}, {"compound": "CCCCCC1CC1CC1CC1CCCCCCCC(=O)OC/C=C(C)/C=C/C=C(C)/C=C/C1=C(C)CCCC1(C)C", "note": "(stereo not shown) [DCPLA-retinyl ester]", "values": [{"measurement": "Emax", "setting": "PKC-ε", "result": 129, "unit": "%"}, {"measurement": "EC50", "setting": "PKC-ε", "result": 10, "unit": "nM"}]}, {"compound": "CCCCCC1CC1CC1CC1CCCCCCCC(=O)OC(C)(C)C", "note": "(stereo not shown) [DCPLA-t-butyl ester, DCPLA-tert-butyl ester]", "values": [{"measurement": "form of activity vs. concentration response", "setting": "PKC-ε", "result": "bimodal activation"}, {"measurement": "Emax", "setting": "PKC-ε", "result": 130, "unit": "%"}, {"measurement": "EC50", "setting": "PKC-ε", "result": 1, "unit": "nM"}]}, {"compound": "CCCC(=O)O[C@@H]1[C@@H](C)[C@@]2(O)[C@@H](C=C(CO)C[C@]3(O)C(=O)C(C)=C[C@@H]23)[C@@H]2C(C)(C)[C@]12OC(=O)CCC", "note": "[Phorbol ester (PdBu)]", "values": [{"measurement": "3H-DCPLA-ME binding, 30 nM competitor", "setting": "[1]", "result": 100, "unit": "%"}, {"measurement": "3H-DCPLA-ME binding, 1 μM competitor", "setting": "[1]", "result": 81, "unit": "%"}]}, {"compound": "oAβ < 100 kDa: filtrate from the 100 kDa filtration of ASPD preparation, 12 monomers on average", "values": [{"measurement": "Viability of primary neuron", "setting": "[2]; 50 nM", "result": "76.41 ± 5.54 % of control"}, {"measurement": "Viability of primary neuron", "setting": "[2]; 50 nM, listed as OAβ<100 kDa filtrate", "result": "significantly cytotoxic"}, {"measurement": "Viability of primary neuron", "setting": "[2]; 500 nM", "result": "62.94 ± 9.53 % of control"}, {"measurement": "Viability of primary neuron", "setting": "[2]; 1000 nM (1 μM)", "result": "53.52 ± 2.43 % of control"}]}]}
